Laboratory results from patent EP1093379B1, “USE OF INHIBITORS OF PROTEIN KINASE C EPSILON TO TREAT PAIN” (The Regents of the University of California, priority 1998, dated 2007).

Key:
[1] = system: PGE2-induced hyperalgesia; assay: PGE2-induced mechanical hyperalgesia, paw-withdrawal threshold; assay type: in vivo, rat; details: same dose as for epinephrine: BIM 1 µg, WIPTIDE 100 ng
Description: The roles of PKC, protein kinase A ("PKA") and the µ-opioid receptor in mediating epinephrine-induced hyperalgesia were assessed by measuring the effects of: Rp-adenosine 3', 5'-cyclic monophosphate ("Rp-cAMPs") and WIPTIDE, both inhibitors of PKA; SQ22536, an inhibitor of adenylyl cyclase, an enzyme activated by PKA; bisindolymaleimide ("BIM"), a nonselective inhibitor of PKC isozymes; and [D-Ala^2,N-Me-Phe^4,Gly^5-ol]-enkephalin ("DAMGO"), p-opioid receptor agonist. The dose for each inhibitor was 1µg, except for WIPTIDE, which was administered in a 100ng dose. DAMGO was co-injected with epinephrine whereas the other inhibitors were applied 15 minutes prior to epinephrine injection. […] TABLE 1: Percentage decrease in nociceptive threshold in response to epinephrine, PGE2 or isoproterenol (each 100 ng) and effects of DAMGO, SQ22536, BIM, Rp-cAMPs (all 1 µg) or WIPTIDE (0.1 µg). A large numeric value means more hyperalgesia.
For mechanical nociceptive testing, the nociceptive flexion reflex was quantified using an Ugo Basile analgesymeter that applies a constantly increasing force measured in grams (Stoelting, Chicago, IL; K. O. Aley, J. D. Levine, J. Neurosci. 17, 8018-23 (1997)). The mean basal mechanical threshold for rats used in these experiments was 105.3+/-2.8 grams. The effects of hyperalgesia-inducing agents epinephrine (100ng) and PGE2 (100ng) on mechanical nociceptive thresholds were determined by measuring paw withdrawal frequencies at 15, 20, and 25 minutes after administration of the hyperalgesic agent and then calculating the mean of these three readings.

[2] = system: isoproterenol-induced hyperalgesia; assay: Isoproterenol-induced mechanical hyperalgesia, paw-withdrawal threshold; assay type: in vivo, rat; details: intradermal; BIM 1 µg, WIPTIDE 100 ng; propranolol dose not given
Description: To examine the role of β-AR in epinephrine-induced hyperalgesia, propranolol, a β-AR antagonist, and isoproterenol, a selective β-AR agonist, were administered by intradermal injection.
The roles of PKC, protein kinase A ("PKA") and the µ-opioid receptor in mediating epinephrine-induced hyperalgesia were assessed by measuring the effects of: Rp-adenosine 3', 5'-cyclic monophosphate ("Rp-cAMPs") and WIPTIDE, both inhibitors of PKA; SQ22536, an inhibitor of adenylyl cyclase, an enzyme activated by PKA; bisindolymaleimide ("BIM"), a nonselective inhibitor of PKC isozymes; and [D-Ala^2,N-Me-Phe^4,Gly^5-ol]-enkephalin ("DAMGO"), p-opioid receptor agonist. The dose for each inhibitor was 1µg, except for WIPTIDE, which was administered in a 100ng dose. […] A large numeric value means more hyperalgesia.

TTX-RINa = assay type: cell-based, rat
[3] = system: diabetes-induced hyperalgesia; assay: Streptozotocin diabetes model, diabetes-induced hyperalgesia to mechanical stimuli; assay type: in vivo, Sprague-Dawley rats; details: four weeks after streptozotocin 70 mg/kg; intradermal sterile water then 1 µg
Description: Persons with uncontrolled or poorly controlled diabetes frequently experience hyperalgesia. The role of PKCε in diabetic neuropathy was examined in a model of diabetes in which male Sprague-Dawley rats receive subcutaneous injection of streptozotocin (70 mg/kg), a pancreatic β-cell toxin. These rats display hyperglycemia and glucosuria within 24 hours after the injection and show decreased nociceptive thresholds in response to mechanical stimuli administered by Ugo Basile analgesymeter in the hind paw after one week (Ahlgren, S.C. et al, J. Neurophysiology, 68, 2077-2085 (1992); Ahlgren, S.C. and Levine, J.D., Neuroscience 52, 1049-1055 (1993)). Four weeks after the streptozotocin injection, each rat received no treatment (n=8) or an intradermal injection of sterile water followed by a intradermal injections of (1) 1 µg bisindolymaleimide, a protein kinase C inhibitor (n=4; labeled "BIM" on Figure 12B), (2) 1 µg εV1-2, a PKCε inhibitory peptide (n=8; labeled "PKCεI" on Figure 12B), or (3) 1 µg S-VεV1-2, a scrambled version of the εV1-2 peptide (n=4; labeled "PCKε1 SCR" on Figure 12B) and were subsequently exposed to mechanical stimuli.

[4] = system: prolonged PGE2-induced hyperalgesia; assay: Chronic inflammatory pain model: prolonged hyperalgesia in carrageenan-sensitized rats (Randall-Selitto paw-withdrawal test); assay type: in vivo
Excerpt: In order to investigate the role, if any, of PKCε in chronic inflammatory pain, the following model system for chronic inflammatory pain was developed. Rats received intradermal hind paw injections of carrageenan, an inflammatory agent. […] This was considered an acute response to the carrageenan-induced inflammation. Although administration of Prostaglandin E2 ("PGE2"), 5-hydroxytryptamine ("5-HT," serotonin) or CGS-21680 (an adenosine A2-selective receptor agonist) normally causes untreated rats (that is, rats that have not received carrageenan injections) to experience hyperalgesia lasting up to 6 hours, the hyperalgesia experienced by carrageenan-sensitized rats following administration of any one of these substances lasted up to 24 hours.
The prolonged PGE2-induced hyperalgesia normally seen in carrageenan-sensitized rats was inhibited by administration of BIM or εV1-2.
To examine whether protein kinase C modulates the processes by which a brief inflammatory event causes prolonged hyperalgesia many days later, rats received carrageenan and 1µg BIM injections at the same time. Hyperalgesia was measured 72 hours later, when the rats were treated PGE2. […] Therefore, administration of an inhibitor of PKC either at approximately the same time as the inflammatory agent giving rise to chronic, prolonged hyperalgesia or at about the same time as the hyperalgesia-inducing stimulus can lessen such chronic hyperalgesia.

[5] = 1µM epinephrine with 100µM BIM v. epinephrine alone
[6] = 1µg at the same time as carrageenan

CN(C)CCCn1cc(C2=C(c3c[nH]c4ccccc34)C(=O)NC2=O)c2ccccc21 [BIM, bisindolymaleimide I]
effect on PGE2-induced hyperalgesia [1]: had no effect
effect on isoproterenol-induced hyperalgesia [2]: significantly attenuated
mean peak current increase (TTX-RINa; [5]): 32%
number of neurons responsive to epinephrine (TTX-RINa; [5]): 5 out of 11
effect on epinephrine-induced potentiation of TTX-RINa (TTX-RINa; 1µM epinephrine, 2µM propranolol, 5µM phentolamine, 100µM Rp-cAMPs, 100µM BIM): significantly decreased
effect on diabetes-induced decrease in nociceptive threshold [3]: markedly reduced
effect on acute hyperalgesia normally induced by carrageenan exposure [4, 6]: attenuated
effect on prolonged hyperalgesia on PGE2 72 or more hours after carrageenan exposure [4, 6]: attenuated
effect on prolonged PGE2-induced hyperalgesia in carrageenan-sensitized rats ([4]; 1µg several days after the carrageenan injection, then PGE2): inhibited
